The source made the active and inactive calls. The rule behind the calls is not given here.
Legend:
[1] = biological target: Acetylcholinesterase (Electrophorus electricus, UniProt O42275)
Description: Inhibition of electric eel AChE by Ellman's method

[2] = biological target: Cholinesterase (Equus caballus, UniProt P81908)
Description: Inhibition of BChE from equine serum by Ellman's method

[3] = biological target: T1, Muscarinic acetylcholine receptor M1 (Homo sapiens) (UniProt P11229); details: CHO
T1 sequence (whole entry): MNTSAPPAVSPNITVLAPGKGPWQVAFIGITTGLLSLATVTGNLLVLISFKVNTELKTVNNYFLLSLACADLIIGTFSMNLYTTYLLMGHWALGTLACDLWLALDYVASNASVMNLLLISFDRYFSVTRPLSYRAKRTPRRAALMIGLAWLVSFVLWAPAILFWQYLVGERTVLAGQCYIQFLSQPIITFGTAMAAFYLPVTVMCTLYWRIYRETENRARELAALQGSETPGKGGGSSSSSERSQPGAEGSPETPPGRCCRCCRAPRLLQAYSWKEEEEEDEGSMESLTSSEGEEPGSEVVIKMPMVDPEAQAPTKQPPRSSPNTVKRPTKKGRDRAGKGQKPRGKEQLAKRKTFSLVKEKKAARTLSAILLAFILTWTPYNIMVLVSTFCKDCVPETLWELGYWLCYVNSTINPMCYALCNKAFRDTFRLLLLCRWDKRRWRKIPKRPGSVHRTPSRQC
Description: Displacement of [3H]NMS from human muscarinic M1 receptor expressed in CHO cells in ternary complex by EATCM analysis

[4] = biological target: T1, Muscarinic acetylcholine receptor M1 (Homo sapiens); details: CHO; remark: listed apart in the source
Description: Displacement of [3H]NMS from human muscarinic M1 receptor expressed in CHO cells in binary complex by EATCM analysis

[5] = test system: Rattus norvegicus; experiment: Antiamnesic activity in Wistar rat assessed as increase in total exploration time at 2 umol/100 g body weight, ip by eight-arm radial maze cognition test; type: functional, organism-based
[6] = test system: Rattus norvegicus; experiment: Antiamnesic activity against scopolamine-induced memory loss in Wistar rat assessed as increase in total exploration time at 2 umol/100 g body weight, ip by eight-arm radial maze cognition test; type: functional, organism-based

Acetylcholinesterase, sequence (O42275 whole entry): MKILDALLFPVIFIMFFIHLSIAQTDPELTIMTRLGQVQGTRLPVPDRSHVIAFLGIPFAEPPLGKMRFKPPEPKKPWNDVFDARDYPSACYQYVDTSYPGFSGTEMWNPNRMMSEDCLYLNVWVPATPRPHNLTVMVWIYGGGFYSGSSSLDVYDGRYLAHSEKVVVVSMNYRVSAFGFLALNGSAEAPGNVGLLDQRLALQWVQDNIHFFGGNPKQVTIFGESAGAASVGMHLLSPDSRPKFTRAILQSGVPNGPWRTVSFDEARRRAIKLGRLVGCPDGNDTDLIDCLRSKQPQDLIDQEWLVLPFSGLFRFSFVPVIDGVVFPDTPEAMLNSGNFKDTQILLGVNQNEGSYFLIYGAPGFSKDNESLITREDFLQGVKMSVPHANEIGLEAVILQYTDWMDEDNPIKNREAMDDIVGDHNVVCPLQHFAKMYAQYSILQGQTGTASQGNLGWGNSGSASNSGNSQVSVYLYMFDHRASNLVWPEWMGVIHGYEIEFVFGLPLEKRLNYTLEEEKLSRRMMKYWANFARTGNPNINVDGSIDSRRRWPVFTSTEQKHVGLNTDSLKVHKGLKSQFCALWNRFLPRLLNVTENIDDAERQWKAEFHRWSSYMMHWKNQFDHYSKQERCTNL
Cholinesterase, sequence (P81908 whole entry): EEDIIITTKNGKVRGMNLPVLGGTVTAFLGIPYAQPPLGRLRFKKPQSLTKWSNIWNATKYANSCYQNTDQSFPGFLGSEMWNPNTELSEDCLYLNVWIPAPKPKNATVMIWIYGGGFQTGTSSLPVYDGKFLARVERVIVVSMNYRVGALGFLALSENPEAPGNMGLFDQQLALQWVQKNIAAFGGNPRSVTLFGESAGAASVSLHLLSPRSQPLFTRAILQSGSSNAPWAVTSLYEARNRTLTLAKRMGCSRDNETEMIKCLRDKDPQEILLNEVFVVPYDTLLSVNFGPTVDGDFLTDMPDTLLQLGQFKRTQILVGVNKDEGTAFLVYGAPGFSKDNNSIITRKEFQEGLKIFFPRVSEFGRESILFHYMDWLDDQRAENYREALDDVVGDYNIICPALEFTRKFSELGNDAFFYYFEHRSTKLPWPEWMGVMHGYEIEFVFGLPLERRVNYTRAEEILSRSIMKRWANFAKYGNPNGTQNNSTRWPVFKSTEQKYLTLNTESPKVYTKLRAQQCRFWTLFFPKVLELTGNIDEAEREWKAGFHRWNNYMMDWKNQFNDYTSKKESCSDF

SMILES | IC50 [1] | IC50 [2] | logKd [3] | logKd [4] | Activity [5] | Activity [6]
CN1CCC=C(c2nsnc2OCCCOCCC(=O)NCCCCCCCCNc2c3c(nc4ccccc24)CCCC3)C1 | 22.9 nM | 13.2 nM | 6.7 | 7.57 |  | 
CN1CCC=C(c2nsnc2OCCCCNCCCNc2c3c(nc4ccccc24)CCCC3)C1 | 63.1 nM | 28.8 nM |  |  |  | 
CN1CCC=C(c2nsnc2OCCCOCCCC(=O)NCCCCCCCCNc2c3c(nc4ccccc24)CCCC3)C1 | 6.46 nM | 5.01 nM | 7.06 | 7.38 |  | 
CN1CCC=C(c2nsnc2OCCCCNCCCCCCCCNc2c3c(nc4ccccc24)CCCC3)C1 | 26.3 nM | 13.5 nM |  |  |  | 
CN1CCC=C(c2nsnc2OCCCOCCCC(=O)NCCCCNc2c3c(nc4ccccc24)CCCC3)C1 |  | 6.76 nM |  |  |  | 
CN1CCC=C(c2nsnc2OCCCOCC(=O)NCCCNc2c3c(nc4ccccc24)CCCC3)C1 | 14.8 nM | 9.77 nM | 7.87 | 8.1 |  | 
CN1CCC=C(c2nsnc2OCCCCNCCCCCNc2c3c(nc4ccccc24)CCCC3)C1 | 21.9 nM | 12.3 nM |  |  |  | 
CN1CCC=C(c2nsnc2OCCCOCCCCC(=O)NCCCNc2c3c(nc4ccccc24)CCCC3)C1 | 10.2 nM | 8.91 nM |  |  |  | 
CN1CCC=C(c2nsnc2OCCCOCCCC(=O)NCCCNc2c3c(nc4ccccc24)CCCC3)C1 | 10.7 nM | 10 nM |  |  |  | 
CN1CCC=C(c2nsnc2OCCCOCC(=O)NCCCCCCCCNc2c3c(nc4ccccc24)CCCC3)C1 | 6.61 nM | 5.13 nM | 6.35 | 6.88 | Active | Active
CN1CCC=C(c2nsnc2OCCCOCCCCC(=O)NCCCCCCCCNc2c3c(nc4ccccc24)CCCC3)C1 | 6.17 nM | 5.89 nM |  |  |  | 
CCCCCCOc1nsnc1C1=CCCN(C)C1 |  |  | 4.94 | 7.4 |  | 
CN1CCC=C(c2nsnc2OCCCOCC(=O)NCCCCNc2c3c(nc4ccccc24)CCCC3)C1 | 12 nM | 10.7 nM |  |  |  | 
CN1CCC=C(c2nsnc2OCCCOCCC(=O)NCCCCNc2c3c(nc4ccccc24)CCCC3)C1 | 10.7 nM | 9.12 nM |  |  |  | 
CN1CCC=C(c2nsnc2OCCCCNCCCCNc2c3c(nc4ccccc24)CCCC3)C1 | 43.7 nM | 16.2 nM | 7.49 | 8.13 |  | 
CN1CCC=C(c2nsnc2OCCCOCCCCC(=O)NCCCCNc2c3c(nc4ccccc24)CCCC3)C1 | 8.71 nM | 5.89 nM |  |  |  | 
CN1CCC=C(c2nsnc2OCCCOCCC(=O)NCCCNc2c3c(nc4ccccc24)CCCC3)C1 | 13.5 nM | 10.7 nM | 8.03 | 8.09 |  | 
